Test results from patent publication US9108957B2 (MITSUBISHI TANABE PHARMA CORPORATION, priority 2009, dated 2015).

Target: human recombinant TPK1 (Homo sapiens, UniProt P49841)
Experiment: Inhibitory activity against P-GS1 phosphorylation by TPK1 (Kinase Glo luminescence)
Assay type: biochemical
Settings: 7.5 μM P-GS1, 10 μM ATP, 25° C. for 16 hours, Kinase Glo Reagent luminescent signal
Method: Inhibitory Activity of the Medicament of the Present Invention Against P-GS1 Phosphorylation by Bovine Cerebral TPK1
A mixture containing 100 mM HEPES-sodium hydroxide (pH 7.2), 1 mM magnesium acetate, 1 mM EGTA, 1 mM dithiothreitol (DTT), 0.02% Tween 20, 7.5 μM P-GS1, 10 μM ATP, human recombinant TPK1 and a compound shown in Table (a final mixture contained 1% DMSO deriving from a solution of a test compound prepared in the presence of 10% DMSO) was used as a reaction system. The phosphorylation was started by adding ATP, and the reaction was conducted at 25° C. for 16 hours. Then equal volume of Kinase Glo Reagent (Promega) was added to the mixture and luminescent signal from the mixture was measured. IC50 for each compound was calculated by setting the data of mixture without enzyme as 0% activity and that without compound as 100% activity.

Chain of human recombinant TPK1 (P49841 whole entry): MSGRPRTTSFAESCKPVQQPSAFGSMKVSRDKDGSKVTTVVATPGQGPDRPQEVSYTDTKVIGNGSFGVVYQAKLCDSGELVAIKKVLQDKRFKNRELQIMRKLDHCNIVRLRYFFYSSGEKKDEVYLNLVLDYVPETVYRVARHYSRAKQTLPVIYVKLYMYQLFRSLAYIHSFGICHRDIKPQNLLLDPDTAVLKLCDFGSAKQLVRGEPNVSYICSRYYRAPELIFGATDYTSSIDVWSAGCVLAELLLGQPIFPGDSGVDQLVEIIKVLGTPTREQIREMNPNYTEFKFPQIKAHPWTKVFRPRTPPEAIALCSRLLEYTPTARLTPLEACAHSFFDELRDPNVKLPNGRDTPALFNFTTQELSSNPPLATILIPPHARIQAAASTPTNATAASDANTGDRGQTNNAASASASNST

Structure (SMILES) | IC50
Cn1c(N2CCOC(c3ccc(-c4ncon4)cc3)CC2)nc(-c2ccncc2F)cc1=O (single isomer, unassigned; (+)) [Compound A089] | 5.4 nM
Cc1noc(-c2ccc(C3CCN(c4nc(-c5ccncc5F)cc(=O)n4C)CCO3)cc2)n1 (single isomer, unassigned; (+)) [Compound A090, (+)-2-[7-[4-(3-methyl-1,2,4-oxadiazol-5-yl)-phenyl]-1,4-oxazepan-4-yl]-6-(3-fluoropyridin-4-yl)-3-methylpyrimidin-4(3H)-one] | 6.1 nM
Cc1nc(-c2ccc(C3CCN(c4nc(-c5ccncc5F)cc(=O)n4C)CCO3)cc2)no1 (single isomer, unassigned; (+)) [Compound A091, (+)-2-[7-[4-(5-methyl-1,2,4-oxadiazol-3-yl)-phenyl]-1,4-oxazepan-4-yl]-6-(3-fluoropyridin-4-yl)-3-methylpyrimidin-4(3H)-one] | 6.8 nM
Cn1c(N2CCOC(c3ccc(Br)cc3)CC2)nc(-c2ccncn2)cc1=O (single isomer, unassigned; (+)) [Compound A096, (+)-2-[7-(4-bromophenyl)-1,4-oxazepan-4-yl]-3-methyl-6-(pyrimidin-4-yl)pyrimidin-4(3H)-one] | 10.8 nM
Cn1c(N2CCOC(c3ccc(-c4ncon4)cc3)CC2)nc(-c2ccncn2)cc1=O (single isomer, unassigned; (+)) [Compound A099, (+)-2-[7-[4-(1,2,4-oxadiazol-3-yl)-phenyl]-1,4-oxazepan-4-yl]-3-methyl-6-(pyrimidin-4-yl)pyrimidin-4(3H)-one] | 14.7 nM
Cc1nc(-c2ccc(C3CCN(c4nc(-c5ccncn5)cc(=O)n4C)CCO3)cc2)no1 (single isomer, unassigned; (+)) [Compound A100, (+)-2-[7-[4-(5-methyl-1,2,4-oxadiazol-3-yl)-phenyl]-1,4-oxazepan-4-yl]-3-methyl-6-(pyrimidin-4-yl)pyrimidin-4(3H)-one] | 15 nM
Cc1noc(-c2ccc(C3CCN(c4nc(-c5ccncn5)cc(=O)n4C)CCO3)cc2)n1 (single isomer, unassigned; (+)) [Compound A103, (+)-2-[7-[4-(3-methyl-1,2,4-oxadiazol-5-yl)-phenyl]-1,4-oxazepan-4-yl]-3-methyl-6-(pyrimidin-4-yl)pyrimidin-4(3H)-one] | 16.3 nM
Cn1c(N2CCOC(c3ccc(-c4ncno4)cc3)CC2)nc(-c2ccncn2)cc1=O (single isomer, unassigned; (+)) [Compound A107, (+)-2-[7-[4-(1,2,4-oxadiazol-5-yl)-phenyl]-1,4-oxazepan-4-yl]-3-methyl-6-(pyrimidin-4-yl)pyrimidin-4(3H)-one] | 23 nM
Cn1c(N2CCOC(c3ccc(Br)cc3)CC2)nc(-c2ccncc2F)cc1=O (single isomer, unassigned; (+)) [Compound A114, (+)-2-(7-(4-bromophenyl)-1,4-oxazepan-4-yl)-6-(3-fluoropyridin-4-yl)-3-methylpyrimidin-4(3H)-one] | 34.7 nM
Cn1c(N2CCOC(c3ccc(Br)cc3)CC2)nc(-c2ccncc2)cc1=O (single isomer, unassigned; (+)) [Compound A119, (+)-2-[7-(4-bromophenyl)-1,4-oxazepan-4-yl]-3-methyl-6-(pyridin-4-yl)pyrimidin-4(3H)-one] | 72.2 nM
Cn1c(N2CCOCC(c3ccccc3)C2)nc(-c2ccncn2)cc1=O (single isomer, unassigned; (-)) [Compound A075, (−)-2-(6-phenyl-1,4-oxazepan-4-yl)-3-methyl-6-(pyrimidin-4-yl)pyrimidin-4(3H)-one] | 1.4 nM
Cc1nc(-c2ccc(C3CCN(c4nc(-c5ccncc5F)cc(=O)n4C)CCO3)cc2)no1 (single isomer, unassigned; (-)) [Compound A097, (−)-2-[7-[4-(5-methyl-1,2,4-oxadiazol-3-yl)-phenyl]-1,4-oxazepan-4-yl]-6-(3-fluoropyridin-4-yl)-3-methylpyrimidin-4(3H)-one] | 11.3 nM
Cn1c(N2CCOC(c3ccc(-c4ncon4)cc3)CC2)nc(-c2ccncc2F)cc1=O (single isomer, unassigned; (-)) [Compound A104, (−)-2-[7-[4-(1,2,4-oxadiazol-3-yl)-phenyl]-1,4-oxazepan-4-yl]-6-(3-fluoropyridin-4-yl)-3-methylpyrimidin-4(3H)-one] | 17.2 nM
Cn1c(N2CCOC(c3ccc(-c4ncon4)cc3)CC2)nc(-c2ccncn2)cc1=O (single isomer, unassigned; (-)) [Compound A111, (−)-2-[7-[4-(1,2,4-oxadiazol-3-yl)-phenyl]-1,4-oxazepan-4-yl]-3-methyl-6-(pyrimidin-4-yl)pyrimidin-4(3H)-one] | 29.5 nM
Cc1nc(-c2ccc(C3CCN(c4nc(-c5ccncn5)cc(=O)n4C)CCO3)cc2)no1 (single isomer, unassigned; (-)) [Compound A112, (−)-2-[7-[4-(5-methyl-1,2,4-oxadiazol-3-yl)-phenyl]-1,4-oxazepan-4-yl]-3-methyl-6-(pyrimidin-4-yl)pyrimidin-4(3H)-one] | 30 nM
Cc1noc(-c2ccc(C3CCN(c4nc(-c5ccncc5F)cc(=O)n4C)CCO3)cc2)n1 (single isomer, unassigned; (-)) [Compound A113, (−)-2-[7-[4-(3-methyl-1,2,4-oxadiazol-5-yl)-phenyl]-1,4-oxazepan-4-yl]-6-(3-fluoropyridin-4-yl)-3-methylpyrimidin-4(3H)-one] | 30 nM

Structure (SMILES) | IC50
Cn1c(N2CCOC(c3ccc(-c4ncno4)cc3)CC2)nc(-c2ccncn2)cc1=O (single isomer, unassigned; (-)) [Compound A116, (−)-2-[7-[4-(1,2,4-oxadiazol-5-yl)-phenyl]-1,4-oxazepan-4-yl]-3-methyl-6-(pyrimidin-4-yl)pyrimidin-4(3H)-one] | 48 nM
Cn1c(N2CCOC(c3ccc(Br)cc3)CC2)nc(-c2ccncc2F)cc1=O (single isomer, unassigned; (-)) [Compound A120, (−)-2-(7-(4-bromophenyl)-1,4-oxazepan-4-yl)-6-(3-fluoropyridin-4-yl)-3-methylpyrimidin-4(3H)-one] | 82.8 nM
Cc1noc(-c2ccc(C3CCN(c4nc(-c5ccncn5)cc(=O)n4C)CCO3)cc2)n1 (single isomer, unassigned; (-)) [Compound A121, (−)-2-[7-[4-(3-methyl-1,2,4-oxadiazol-5-yl)-phenyl]-1,4-oxazepan-4-yl]-3-methyl-6-(pyrimidin-4-yl)pyrimidin-4(3H)-one] | 83.4 nM
Cn1c(N2CCOC(c3ccc(Br)cc3)CC2)nc(-c2ccncn2)cc1=O (single isomer, unassigned; (-)) [Compound A122, (−)-2-(7-(4-bromophenyl)-1,4-oxazepan-4-yl)-3-methyl-6-(pyrimidin-4-yl)pyrimidin-4(3H)-one] | 114 nM
Cc1nc(-c2ccc(C3CN(c4nc(-c5ccncn5)cc(=O)n4C)CCCO3)cc2)no1 (stereo in doubt) [Compound A034, (R)-2-[2-[4-(5-methyl-1,2,4-oxadiazol-3-yl)-phenyl]-1,4-oxazepan-4-yl]-3-methyl-6-(pyrimidin-4-yl)pyrimidin-4(3H)-one] | 23.5 nM
Cn1c(N2CCCOCC2c2ccccc2)nc(-c2ccncn2)cc1=O (stereo in doubt) [Compound A065, (S)-3-methyl-2-(3-phenyl-1,4-oxazepan-4-yl)-6-(pyrimidin-4-yl)pyrimidin-4(3H)-one] | 97.5 nM
Cn1c(N2CCCOCC2)nc(-c2ccncc2F)cc1=O [Compound A001, 6-(3-fluoropyridin-4-yl)-3-methyl-2-(1,4-oxazepan-4-yl)pyrimidin-4(3H)-one] | 27.4 nM
Cn1c(N2CCCOCC2)nc(-c2ccncn2)cc1=O [Compound A002, 2-(1,4-oxazepan-4-yl)-3-methyl-6-(pyrimidin-4-yl)pyrimidin-4(3H)-one] | 232 nM
Cn1c(N2CCCN(c3ccc(F)cc3)CC2)nc(-c2ccncc2F)cc1=O [Compound A003, 2-[4-(4-fluorophenyl)-1,4-diazepan-1-yl]-6-(3-fluoropyridin-4-yl)-3-methylpyrimidin-4(3H)-one] | 18.4 nM
Cn1c(N2CCCN(c3ccc(F)cc3)CC2)nc(-c2ccncn2)cc1=O [Compound A004, 2-[4-(4-fluorophenyl)-1,4-diazepan-1-yl]-3-methyl-6-(pyrimidin-4-yl)pyrimidin-4(3H)-one] | 35.1 nM
Cn1c(N2CCCN(c3ccc(F)cc3)CC2)nc(-c2ccncc2)cc1=O [Compound A005, 2-[4-(4-fluorophenyl)-1,4-diazepan-1-yl]-3-methyl-6-(pyridin-4-yl)pyrimidin-4(3H)-one] | 84.2 nM
Cn1c(N2CCCOC(c3ccccc3)C2)nc(-c2ccncc2F)cc1=O (stereo not shown) [Compound A006, 2-(2-phenyl-1,4-oxazepan-4-yl)-6-(3-fluoropyridin-4-yl)-3-methylpyrimidin-4(3H)-one] | 2.3 nM
Cn1c(N2CCCO[C@@H](c3ccc(C(N)=O)cc3)C2)nc(-c2ccncc2F)cc1=O [Compound A007, (S)-2-[2-(4-aminocarbonylphenyl)-1,4-oxazepan-4-yl]-6-(3-fluoropyridin-4-yl)-3-methylpyrimidin-4(3H)-one] | 3.5 nM
Cn1c(N2CCCO[C@@H](c3cccc(Br)c3)C2)nc(-c2ccncc2F)cc1=O [Compound A008, (S)-2-[2-(3-bromophenyl)-1,4-oxazepan-4-yl]-6-(3-fluoropyridin-4-yl)-3-methylpyrimidin-4(3H)-one] | 4.5 nM
Cn1c(N2CCCO[C@@H](c3ccc(Br)cc3)C2)nc(-c2ccncn2)cc1=O [Compound A009, (S)-2-[2-(4-bromophenyl)-1,4-oxazepan-4-yl]-3-methyl-6-(pyrimidin-4-yl)pyrimidin-4(3H)-one] | 5.2 nM
